32 compounds from patent US8435980B2 (AbbVie Inc., priority 2009, dated 2013) can be followed below.

Structures are written as SMILES. Some results are limits rather than exact numbers.

T1 sequence (O00311 whole entry): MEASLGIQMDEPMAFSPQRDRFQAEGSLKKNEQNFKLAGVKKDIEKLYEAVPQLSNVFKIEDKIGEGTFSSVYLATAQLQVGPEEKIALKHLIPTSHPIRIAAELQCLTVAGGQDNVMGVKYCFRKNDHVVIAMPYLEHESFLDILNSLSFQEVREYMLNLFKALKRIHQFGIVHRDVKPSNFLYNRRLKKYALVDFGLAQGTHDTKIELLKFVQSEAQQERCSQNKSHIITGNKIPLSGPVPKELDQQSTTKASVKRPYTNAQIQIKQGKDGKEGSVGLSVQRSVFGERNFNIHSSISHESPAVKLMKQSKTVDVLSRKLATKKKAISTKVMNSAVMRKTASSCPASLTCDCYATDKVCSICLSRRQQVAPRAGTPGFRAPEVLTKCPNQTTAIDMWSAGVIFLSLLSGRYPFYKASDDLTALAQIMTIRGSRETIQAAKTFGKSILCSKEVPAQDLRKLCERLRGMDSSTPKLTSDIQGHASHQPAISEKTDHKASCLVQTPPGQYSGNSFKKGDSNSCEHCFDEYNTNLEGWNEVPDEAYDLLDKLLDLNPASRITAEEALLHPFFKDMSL
T1 sequence (Q9UBU7 whole entry partner): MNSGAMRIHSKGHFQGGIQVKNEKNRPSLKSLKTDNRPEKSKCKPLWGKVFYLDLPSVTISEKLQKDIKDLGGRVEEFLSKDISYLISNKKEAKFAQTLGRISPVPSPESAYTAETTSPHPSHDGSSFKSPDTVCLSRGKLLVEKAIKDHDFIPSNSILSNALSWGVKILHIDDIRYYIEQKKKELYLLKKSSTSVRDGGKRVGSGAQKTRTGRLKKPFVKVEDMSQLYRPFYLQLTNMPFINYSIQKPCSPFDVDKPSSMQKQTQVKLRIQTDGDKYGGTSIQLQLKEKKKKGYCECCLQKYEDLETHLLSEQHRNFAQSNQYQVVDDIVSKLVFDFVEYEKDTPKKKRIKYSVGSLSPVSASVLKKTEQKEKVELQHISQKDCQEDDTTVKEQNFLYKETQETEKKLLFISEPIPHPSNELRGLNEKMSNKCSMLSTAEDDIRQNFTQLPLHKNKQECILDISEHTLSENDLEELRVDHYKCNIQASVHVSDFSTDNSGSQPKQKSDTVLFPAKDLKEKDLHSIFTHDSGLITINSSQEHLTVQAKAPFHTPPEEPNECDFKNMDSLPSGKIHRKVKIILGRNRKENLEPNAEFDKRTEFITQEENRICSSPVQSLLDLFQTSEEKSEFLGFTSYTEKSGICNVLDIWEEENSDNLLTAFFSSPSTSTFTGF

This assay concerns the target T1, Cdc7 (BEV coexpressed huCDC7/DBF4) (Homo sapiens, UniProt O00311).
T1 construct: made in house; host or cells: BEV (baculovirus expression vector) co-expression; insect cells are implied but no cell line is named
Kind of assay: Cdc7 enzyme inhibition assay ([33P]ATP, biotinylated peptide substrate, FlashPlate). Format: biochemical. Conditions: Table 3; enzyme inhibition data (Ki). On the procedure:
Cdc7 (BEV coexpressed huCDC7/DBF4) is prepared internally. Cdc7 assays are conducted as follows with final concentrations as listed. […] Reactions are quenched after 1 hr by the addition of 90 μL stop buffer (50 mM EDTA, 2M NaCl). […] (Ki) for exemplary compounds.
As for `CC(C)(C)OC(=O)N1CCC1C(=O)NC1CCCC(Nc2cc(-c3c[nH]c4ncccc34)cc(Cl)n2)C1` (centres unmarked) [Example 296, tert-butyl 2-[(3-{[6-chloro-4-(1H-pyrrolo[2,3-b]pyridin-3-yl)pyridin-2-yl]amino}cyclohexyl)carbamoyl]azetidine-1-carboxylate], the Ki is < 10 nM. For `C=CCNC(=O)NC1CCC(Nc2cc(-c3c[nH]c4ncccc34)cc(Cl)n2)CC1` (centres unmarked) [Example 297, 1-(4-{[6-chloro-4-(1H-pyrrolo[2,3-b]pyridin-3-yl)pyridin-2-yl]amino}cyclohexyl)-3-prop-2-en-1-ylurea] the value was < 10 nM.

For `Cn1cnc(S(=O)(=O)NCC(C)(C)CNc2cc(-c3c[nH]c4ncccc34)cc(Cl)n2)c1` [Example 298, N-(3-{[6-chloro-4-(1H-pyrrolo[2,3-b]pyridin-3-yl)pyridin-2-yl]amino}-2,2-dimethylpropyl)-1-methyl-1H-imidazole-4-sulfonamide], the Ki was < 10 nM.

Turning to `O=S(=O)(NC1CCCC(Nc2cc(-c3c[nH]c4ncccc34)cc(Cl)n2)C1)c1ccco1` (centres unmarked) [Example 299, N-(3-{[6-chloro-4-(1H-pyrrolo[2,3-b]pyridin-3-yl)pyridin-2-yl]amino}cyclohexyl)furan-2-sulfonamide], the Ki is < 10 nM. On to `O=S(=O)(NC1CCCC(Nc2cc(-c3c[nH]c4ncccc34)cc(Cl)n2)C1)c1cccnc1` (centres unmarked) [Example 300, N-(3-{[6-chloro-4-(1H-pyrrolo[2,3-b]pyridin-3-yl)pyridin-2-yl]amino}cyclohexyl)pyridine-3-sulfonamide], for which the Ki was < 10 nM. Next, `CC(C)NC(=O)NC1CCCC(Nc2cc(-c3c[nH]c4ncccc34)cc(Cl)n2)C1` (centres unmarked) [Example 301, 1-(3-{[6-chloro-4-(1H-pyrrolo[2,3-b]pyridin-3-yl)pyridin-2-yl]amino}cyclohexyl)-3-propan-2-ylurea]: < 10 nM. Next, `CCOC(=O)CNC(=O)NC1CCCC(Nc2cc(-c3c[nH]c4ncccc34)cc(Cl)n2)C1` (centres unmarked) [Example 302, ethyl N-[(3-{[6-chloro-4-(1H-pyrrolo[2,3-b]pyridin-3-yl)pyridin-2-yl]amino}cyclohexyl)carbamoyl]glycinate]: < 10 nM. `O=C(NCC1CCCCC1)NC1CCCC(Nc2cc(-c3c[nH]c4ncccc34)cc(Cl)n2)C1` (centres unmarked) [Example 303, 1-(3-{[6-chloro-4-(1H-pyrrolo[2,3-b]pyridin-3-yl)pyridin-2-yl]amino}cyclohexyl)-3-(cyclohexylmethyl)urea]: the Ki lay within 10 to 100 nM. `CC(=O)c1ccc(S(=O)(=O)NCC(C)(C)CNc2cc(-c3c[nH]c4ncccc34)cc(Cl)n2)cc1` [Example 304, 4-acetyl-N-(3-{[6-chloro-4-(1H-pyrrolo[2,3-b]pyridin-3-yl)pyridin-2-yl]amino}-2,2-dimethylpropyl)benzenesulfonamide] registered a Ki of 10 to 100 nM. For `Cc1noc(C)c1S(=O)(=O)NCC(C)(C)CNc1cc(-c2c[nH]c3ncccc23)cc(Cl)n1` [Example 305, N-(3-{[6-chloro-4-(1H-pyrrolo[2,3-b]pyridin-3-yl)pyridin-2-yl]amino}-2,2-dimethylpropyl)-3,5-dimethyl-1,2-oxazole-4-sulfonamide] the value was 10 to 100 nM.

In turn, `CC(C)(CNc1cc(-c2c[nH]c3ncccc23)cc(Cl)n1)CNS(=O)(=O)c1cccs1` [Example 306, N-(3-{[6-chloro-4-(1H-pyrrolo[2,3-b]pyridin-3-yl)pyridin-2-yl]amino}-2,2-dimethylpropyl)thiophene-2-sulfonamide] came in with a Ki of 10 to 100 nM. Take `Cc1noc(C)c1S(=O)(=O)NC1CCCC(Nc2cc(-c3c[nH]c4ncccc34)cc(Cl)n2)C1` (centres unmarked) [Example 307, N-(3-{[6-chloro-4-(1H-pyrrolo[2,3-b]pyridin-3-yl)pyridin-2-yl]amino}cyclohexyl)-3,5-dimethyl-1,2-oxazole-4-sulfonamide]: the Ki was < 10 nM. For `CCCNC(=O)NC1CCCC(Nc2cc(-c3c[nH]c4ncccc34)cc(Cl)n2)C1` (centres unmarked) [Example 308, 1-(3-{[6-chloro-4-(1H-pyrrolo[2,3-b]pyridin-3-yl)pyridin-2-yl]amino}cyclohexyl)-3-propylurea] the value was < 10 nM. In the case of `CCCS(=O)(=O)NCC(C)(C)CNc1cc(-c2c[nH]c3ncccc23)cc(Cl)n1` [Example 309, N-(3-{[6-chloro-4-(1H-pyrrolo[2,3-b]pyridin-3-yl)pyridin-2-yl]amino}-2,2-dimethylpropyl)propane-1-sulfonamide], the Ki is < 10 nM. Consider `CC(=O)Nc1cc(-c2c[nH]c3ncccc23)cc(Cl)n1` [Example 310, N-[6-chloro-4-(1H-pyrrolo[2,3-b]pyridin-3-yl)pyridin-2-yl]acetamide], for which the Ki was < 10 nM. `CC(C)S(=O)(=O)N[C@H]1CC[C@H](Nc2cc(-c3c[nH]c4ncccc34)cc(Cl)n2)CC1` [Example 311, N-(trans-4-{[6-chloro-4-(1H-pyrrolo[2,3-b]pyridin-3-yl)pyridin-2-yl]amino}cyclohexyl)propane-2-sulfonamide]: the inhibition constant Ki was < 10 nM.

As to `CCS(=O)(=O)N[C@H]1CC[C@H](Nc2cc(-c3c[nH]c4ncccc34)cc(Cl)n2)CC1` [Example 312, N-(trans-4-{[6-chloro-4-(1H-pyrrolo[2,3-b]pyridin-3-yl)pyridin-2-yl]amino}cyclohexyl)ethanesulfonamide], the Ki was < 10 nM.

As for `CCCCS(=O)(=O)NCCNc1cc(-c2c[nH]c3ncccc23)cc(Cl)n1` [Example 313, N-(2-{[6-chloro-4-(1H-pyrrolo[2,3-b]pyridin-3-yl)pyridin-2-yl]amino}ethyl)butane-1-sulfonamide], the Ki is < 10 nM. On to `O=S(=O)(NCCNc1cc(-c2c[nH]c3ncccc23)cc(Cl)n1)c1cccs1` [Example 314, N-(2-{[6-chloro-4-(1H-pyrrolo[2,3-b]pyridin-3-yl)pyridin-2-yl]amino}ethyl)thiophene-2-sulfonamide], for which the Ki is < 10 nM. Regarding `CN1CCCC(Nc2cc(-c3c[nH]c4ncccc34)cc(Cl)n2)C1` (centres unmarked) [Example 315, 6-chloro-N-(1-methylpiperidin-3-yl)-4-(1H-pyrrolo[2,3-b]pyridin-3-yl)pyridin-2-amine], the Ki was < 10 nM.

Turning to `O=C(C1CC1)N1CCCC(CNc2cc(-c3c[nH]c4ncccc34)cc(Cl)n2)C1` (centres unmarked) [Example 316, [3-({[6-chloro-4-(1H-pynolo[2,3-b]pyridin-3-yl)pyridin-2-yl]amino}methyl)piperidin-1-yl](cyclopropyl)methanone], the inhibition constant Ki was < 10 nM. For `O=C(C1CC1)N1CCCC(CN(C(=O)C2CC2)c2cc(-c3c[nH]c4ncccc34)cc(Cl)n2)C1` (centres unmarked) [Example 317, N-[6-chloro-4-(1H-pyrrolo[2,3-b]pyridin-3-yl)pyridin-2-yl]-N-{[1-(cyclopropylcarbonyl)piperidin-3-yl]methyl}cyclopropanecarboxamide] the value was 10 to 100 nM; for `Clc1cc(-c2c[nH]c3ncccc23)cc(NCC2CCCN(CC3CC3)C2)n1` (centres unmarked) [Example 318, 6-chloro-N-{[1-(cyclopropylmethyl)piperidin-3-yl]methyl}-4-(1H-pyrrolo[2,3-b]pyridin-3-yl)pyridin-2-amine], 10 to 100 nM; for `Clc1cc(-c2c[nH]c3ncccc23)cc(NC2CCCN(CC3CC3)C2)n1` (centres unmarked) [Example 319, 6-chloro-N-[1-(cyclopropylmethyl)piperidin-3-yl]-4-(1H-pyrrolo[2,3-b]pyridin-3-yl)pyridin-2-amine], < 10 nM. For `O=C(Cc1cc2ccccc2[nH]1)Nc1cc(-c2c[nH]c3ncccc23)cc(Cl)n1` [Example 320, N-[6-chloro-4-(1H-pyrrolo[2,3-b]pyridin-3-yl)pyridin-2-yl]-2-(1H-indol-2-yl)acetamide] the value was 10 to 100 nM; for `Clc1cc(-c2c[nH]c3ncccc23)cc(N[C@H]2CC[C@H](NC3CCCC3)CC2)n1` [Example 321, trans-N-[6-chloro-4-(1H-pyrrolo[2,3-b]pyridin-3-yl)pyridin-2-yl]-N′-cyclopentylcyclohexane-1,4-diamine], < 10 nM; for `CC(C)CN[C@H]1CC[C@H](Nc2cc(-c3c[nH]c4ncccc34)cc(Cl)n2)CC1` [Example 322, trans-N-[6-chloro-4-(1H-pyrrolo[2,3-b]pyridin-3-yl)pyridin-2-yl]-N′-(2-methylpropyl)cyclohexane-1,4-diamine], < 10 nM. Next, `Clc1cc(-c2c[nH]c3ncccc23)cc(NC2CCCC(N3CCCC3)C2)n1` (centres unmarked) [Example 323, 6-chloro-N-[3-(pyrrolidin-1-yl)cyclohexyl]-4-(1H-pyrrolo[2,3-b]pyridin-3-yl)pyridin-2-amine]: < 10 nM. As for `Clc1cc(-c2c[nH]c3ncccc23)cc(NC2CCCC(N3CCCCC3)C2)n1` (centres unmarked) [Example 324, 6-chloro-N-[3-(piperidin-1-yl)cyclohexyl]-4-(1H-pyrrolo[2,3-b]pyridin-3-yl)pyridin-2-amine], the Ki is < 10 nM. For `CNCC(=O)N[C@H]1CC[C@H](Nc2cc(-c3c[nH]c4ncccc34)cc(Cl)n2)CC1` [Example 325, N-(trans-4-{[6-chloro-4-(1H-pyrrolo[2,3-b]pyridin-3-yl)pyridin-2-yl]amino}cyclohexyl)-N~2~-methylglycinamide], the Ki is < 10 nM. For `CN[C@@H](C)C(=O)NC1CCCC(Nc2cc(-c3c[nH]c4ncccc34)cc(Cl)n2)C1` (some centres unmarked) [Example 327, N-(3-{[6-chloro-4-(1H-pyrrolo[2,3-b]pyridin-3-yl)pyridin-2-yl]amino}cyclohexyl)-N~2~-methylalaninamide] the value was < 10 nM. For `CN[C@@H](C(=O)N[C@H]1CCC[C@H](Nc2cc(-c3c[nH]c4ncccc34)cc(Cl)n2)C1)c1ccccc1` [Example 328, (2R)—N-[(1S,3S)-3-{[6-chloro-4-(1H-pyrrolo[2,3-b]pyridin-3-yl)pyridin-2-yl]amino}cyclohexyl]-2-(methylamino)-2-phenylethanamide] the value was < 10 nM.

The Ki is the dissociation constant of the complex between target and ligand, obtained from inhibition or displacement. A lower Ki goes with tighter binding.
